Measurements published in patent publication US9101632B2, “Kinase inhibitors, prodrug forms thereof and their use in therapy” (AUCKLAND UNISERVICES LIMITED, priority 2009, dated 2015).
Structures can show the parent of a compound that is named as a salt. Where two headings read alike, the source gives them in different places.

Tests used:
erbB1 (EGFR) = erbB1 (EGFR) (Homo sapiens, UniProt P00533); experiment: Inhibition of erbB1 autophosphorylation in EGF-stimulated intact A431 cells (Western immunoblotting); assay type: cell-based; details: 1 hour treatment, phospho-EGFR (Tyr 1068), β-actin corrected
Procedure: (§1) A431 cells were seeded into 6 well plates (with αMEM+5% FCS). The following day, plates were washed once with serum-free medium and grown for 18 hours in serum-free medium (αMEM) before being exposed to a range of inhibitor or prodrug concentrations for 1 hour and then stimulated for 15 minutes with 100 ng/ml epidermal growth factor (EGF receptor ligand). Next cells were washed with ice cold PBS and lysed in modified RIPA buffer on ice (30 min). Lysates were vortexed and clarify by spinning before protein concentrations of samples was determined by BCA assay. […] All antibodies were diluted in 2% BSA TBS-Tween 0.1%. To detect phospho-EGFR (Tyr 1068) the monoclonal antibody (1:500; Cell Signalling #2234) was incubated overnight at 4° C. and binding was detected with goat-anti-Rabbit-IgG-HRP conjugated secondary antibody (1:5000; Santa Cruz #SC2054; 3 h RT). To detect downstream phospho-p44/42 MAPK(Erk 1/2) (Thr202/Tyr 204) the monoclonal antibody (Cell Signalling #4370) was used at a 1:500 dilution. The blot was then treated with Goat anti-rabbit IgG-HRP conjugated secondary antibody (Santa Cruz Biotechnology, Inc. sc-2054) for three hours at a ratio of 1:5000. To normalise for any inaccuracy in gel loading, each blot was probed with anti-β-actin antibody (Abacus ALS #MAB-1501R, 1:2000 dilution). The following day, the blot was treated with Goat anti-mouse IgG-HRP conjugated secondary antibody (Santa Cruz Biotechnology, Inc. sc-2055) for one hour at a 1:5000 ratio. Protein bands were visualized using Amersham ECL Plus Western Blotting Detection Reagent (GE Healthcare RPN2132). Densitometry was determined using Image J software. Values normalized to β-actin were plotted on SigmaPlot 11.0.

p44/42 MAPK (Erk1/2) = experiment: Inhibition of p44/42 MAPK (Erk1/2) phosphorylation in EGF-stimulated intact A431 cells (Western immunoblotting); assay type: cell-based, human; details: for downstream p44/42 MAPK(Erk 1/2) phosphorylation (Thr202/Tyr 204), result in words: 1 hour treatment
Procedure: as §1

A431 tumours = details: A431 xenograft, q3dx4, intraperitoneal; for Drug related deaths: lactate buffer pH 4; for TGD (Tumour Growth Delay): % increase in time to RTV4 relative to control; for Weight Loss Nadir (%): mean nadir relative to day 0 weight
A431 cells = experiment: Inhibition of cellular proliferation (sulforhodamine B staining)
H1975 cells = experiment: as above; details: for H1975 HCR (Hypoxic Cytotoxicity Ratio): fold change in intra-experimental IC50, 4 hours anoxia relative to oxic only
SKOV3 cells = experiment: as above; details: for SKOV3 HCR (Hypoxic Cytotoxicity Ratio): fold change in intra-experimental IC50, 4 hours anoxia relative to oxic only
[1] = Fragmentation rate constant of 1-electron reduced prodrugs by pulse radiolysis; assay type: physicochemical; details: formation of benzyl-type radicals absorbing in the 360-390 nm region
Text: The rate constants for fragmentation, kfrag, of the 1-electron reduced prodrugs can be measured using pulse radiolysis to observe the time-resolved formation of the absorption spectrum of the benzyl-type radical produced upon fragmentation of the radical anion.

[2] = pulse radiolysis, determined against methylviologen
H1975 tumours = details: for Drug related deaths / Weight Loss Nadir (%): H1975 xenograft, q3dx4, intraperitoneal; for Drug related deaths: lactate buffer pH 4; for Weight Loss Nadir (%): mean nadir relative to day 0 weight
[3] = read-out: Cellular Growth Inhibition IC50 A431 Anoxic, initial 4 hours of the 24 hour exposure under anoxic conditions
[4] = read-out: Cellular Growth Inhibition IC50 A431 Oxic, 24 hour exposure entirely under oxic conditions, washed, further 4 days
[5] = read-out: Cellular Growth Inhibition IC50 H1975 Anoxic, initial 4 hours of the 24 hour exposure under anoxic conditions
[6] = read-out: Cellular Growth Inhibition IC50 H1975 Oxic, 24 hour exposure entirely under oxic conditions, washed, further 4 days
[7] = read-out: Cellular Growth Inhibition IC50 SKOV3 Anoxic, initial 4 hours of the 24 hour exposure under anoxic conditions
[8] = read-out: Cellular Growth Inhibition IC50 SKOV3 Oxic, 24 hour exposure entirely under oxic conditions, washed, further 4 days

Chain of erbB1 (EGFR) (P00533 25-1210): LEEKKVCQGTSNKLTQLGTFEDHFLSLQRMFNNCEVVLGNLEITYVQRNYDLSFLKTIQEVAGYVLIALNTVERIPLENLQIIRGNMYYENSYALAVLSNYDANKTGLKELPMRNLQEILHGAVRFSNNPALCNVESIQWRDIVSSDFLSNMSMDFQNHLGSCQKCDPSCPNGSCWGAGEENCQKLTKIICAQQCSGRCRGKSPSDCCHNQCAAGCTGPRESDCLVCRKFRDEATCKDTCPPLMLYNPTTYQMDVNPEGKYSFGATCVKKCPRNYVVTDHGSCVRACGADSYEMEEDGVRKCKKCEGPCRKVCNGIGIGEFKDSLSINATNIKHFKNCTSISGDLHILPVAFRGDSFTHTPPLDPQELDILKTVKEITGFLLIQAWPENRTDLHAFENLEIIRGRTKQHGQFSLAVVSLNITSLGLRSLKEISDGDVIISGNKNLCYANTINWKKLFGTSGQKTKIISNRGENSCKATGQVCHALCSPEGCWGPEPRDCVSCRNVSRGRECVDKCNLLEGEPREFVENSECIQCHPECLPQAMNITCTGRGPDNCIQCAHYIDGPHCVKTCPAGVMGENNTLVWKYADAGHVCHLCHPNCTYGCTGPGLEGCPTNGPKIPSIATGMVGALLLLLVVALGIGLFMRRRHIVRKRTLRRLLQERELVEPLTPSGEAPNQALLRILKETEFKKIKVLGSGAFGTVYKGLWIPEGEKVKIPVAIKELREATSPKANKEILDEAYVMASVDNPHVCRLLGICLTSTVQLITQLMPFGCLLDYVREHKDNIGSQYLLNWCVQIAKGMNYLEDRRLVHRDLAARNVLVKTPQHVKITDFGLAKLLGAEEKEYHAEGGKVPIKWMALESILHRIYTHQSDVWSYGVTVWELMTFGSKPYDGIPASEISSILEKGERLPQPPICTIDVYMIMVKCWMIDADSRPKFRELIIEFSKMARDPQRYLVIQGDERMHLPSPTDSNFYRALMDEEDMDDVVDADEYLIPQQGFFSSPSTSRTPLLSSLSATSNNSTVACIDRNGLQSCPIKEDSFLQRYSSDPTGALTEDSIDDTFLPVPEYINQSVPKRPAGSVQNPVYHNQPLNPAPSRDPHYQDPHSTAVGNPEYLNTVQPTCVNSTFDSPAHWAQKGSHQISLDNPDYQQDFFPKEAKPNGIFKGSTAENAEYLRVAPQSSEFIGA

Cc1nc([N+](=O)[O-])c(C[N+](C)(C)C/C=C/C(=O)Nc2cc3c(Nc4ccc5c(cnn5Cc5cccc(F)c5)c4)ncnc3cn2)n1C (as salt: bromide) [Compound 14, (2E)-N-[(1,2-dimethyl-4-nitro-1H-imidazol-5-yl)methyl]-4-[(4-{[1-(3-fluorobenzyl)-1H-indazol-5-yl]amino}pyrido[3,4-d]pyrimidin-6-yl)amino]-N,N-dimethyl-4-oxo-2-buten-1-ammonium bromide]
melting point: 188 to 192 °C (dec.)

CN(C)C/C=C/C(=O)Nc1cc2c(Nc3ccc(Br)c(Cl)c3)ncnc2cn1 [Compound 6, (2E)-N-[4-(4-bromo-3-chloroanilino)pyrido[3,4-d]pyrimidin-6-yl]-4-(dimethylamino)-2-butenamide]
IC50 (erbB1 (EGFR)): 25 nM
downstream p44/42 MAPK(Erk 1/2) phosphorylation (Thr202/Tyr 204), result in words (p44/42 MAPK (Erk1/2)): coordinate loss
Drug related deaths (A431 tumours): 0
TGD (Tumour Growth Delay) (A431 tumours): >250%
Weight Loss Nadir (%) (A431 tumours): −1.5 ± 0.8%
IC50 (A431 cells; [3]): 5 nM
IC50 (A431 cells; [4]): 5 nM
H1975 HCR (Hypoxic Cytotoxicity Ratio) (H1975 cells): 0.7
IC50 (H1975 cells; [5]): 220 nM
IC50 (H1975 cells; [6]): 150 nM
SKOV3 HCR (Hypoxic Cytotoxicity Ratio) (SKOV3 cells): 0.7
IC50 (SKOV3 cells; [7]): 550 nM
IC50 (SKOV3 cells; [8]): 200 nM

Cn1cnc([N+](=O)[O-])c1C[N+](C)(C)C/C=C/C(=O)Nc1cc2c(Nc3ccc(Cl)c(Cl)c3)ncnc2cn1 [Compound 16, (2E)-4-{[4-(3,4-dichloroanilino)pyrido[3,4-d]pyrimidin-6-yl]amino}-N,N-dimethyl-N-[(1-methyl-4-nitro-1H-imidazol-5-yl)methyl]-4-oxo-2-buten-1-ammonium bromide]
kfrag./s^−1 rate constant for fragmentation [1]: 60 ± 10 s⁻¹
E(1)/V 1-electron reduction potential [2]: −0.418 V
Drug related deaths (H1975 tumours): 0
Weight Loss Nadir (%) (H1975 tumours): −10.1 ± 0.7%
IC50 (A431 cells; [3]): 15 nM
IC50 (A431 cells; [4]): 330 nM
IC50 (H1975 cells; [5]): 400 nM
IC50 (H1975 cells; [6]): 32000 nM
IC50 (SKOV3 cells; [7]): 530 nM
IC50 (SKOV3 cells; [8]): 40000 nM

Cn1cnc([N+](=O)[O-])c1C[N+](C)(C)C/C=C/C(=O)Nc1cc2c(Nc3ccc4c(cnn4Cc4cccc(F)c4)c3)ncnc2cn1 [Compound 13, (2E)-4-[(4-{[1-(3-fluorobenzyl)-1H-indazol-5-yl]amino}pyrido[3,4-d]pyrimidin-6-yl)amino]N,N-dimethyl-N-[(1-methyl-4-nitro-1H-imidazol-5-yl)methyl]-4-oxo-2-buten-1-ammonium bromide]
kfrag./s^−1 rate constant for fragmentation [1]: 60 ± 10 s⁻¹
E(1)/V 1-electron reduction potential [2]: −0.417 V
Drug related deaths (H1975 tumours): 0
Weight Loss Nadir (%) (H1975 tumours): −4.1 ± 2.5%
IC50 (A431 cells; [3]): 240 nM
IC50 (A431 cells; [4]): 6200 nM
IC50 (H1975 cells; [5]): 3300 nM
IC50 (H1975 cells; [6]): 92000 nM
IC50 (SKOV3 cells; [7]): 1600 nM
IC50 (SKOV3 cells; [8]): 315000 nM

Cn1cnc([N+](=O)[O-])c1C[N+](C)(C)C/C=C/C(=O)Nc1cc2c(Nc3ccc(OCc4ccccn4)c(Cl)c3)ncnc2cn1 [Compound 15, (2E)-4-({4-[3-chloro-4-(2-pyridinylmethoxy)anilino]pyrido[3,4-d]pyrimidin-6-yl}amino)-N,N-dimethyl-N-[(1-methyl-4-nitro-1H-imidazol-5-yl)methyl]-4-oxo-2-buten-1-ammonium bromide]
IC50 (erbB1 (EGFR)): 5290 nM
IC50 (p44/42 MAPK (Erk1/2); Homo sapiens, A-431, 1 hour treatment, read-out: IC50 p44/42 MAPK(Erk 1/2) phosphorylation (Thr202/Tyr 204)): 8900 nM
kfrag./s^−1 rate constant for fragmentation [1]: 60 ± 10 s⁻¹
E(1)/V 1-electron reduction potential [2]: −0.423 V
growth delay of prodrug compared to its cognate kinase inhibitor, result in words (H1975 tumours; H1975 tumours, q3dx4): extended period of growth delay
Drug related deaths (H1975 tumours): 0
Weight Loss Nadir (%) (H1975 tumours): −9.4 ± 3.3%
IC50 (A431 cells; [3]): 300 nM
IC50 (A431 cells; [4]): 10000 nM
IC50 (H1975 cells; [5]): 430 nM
IC50 (H1975 cells; [6]): 26000 nM
IC50 (SKOV3 cells; [7]): 600 nM
IC50 (SKOV3 cells; [8]): 159000 nM

CN(C)C/C=C/C(=O)Nc1cc2c(Nc3ccc(Cl)c(Br)c3)ncnc2cn1 [Compound 5, (2E)-N-[4-(3-bromo-4-chloroanilino)pyrido[3,4-d]pyrimidin-6-yl]-4-(dimethylamino)-2-butenamide]
IC50 (erbB1 (EGFR)): 39.5 nM
downstream p44/42 MAPK(Erk 1/2) phosphorylation (Thr202/Tyr 204), result in words (p44/42 MAPK (Erk1/2)): coordinate loss
Drug related deaths (H1975 tumours): 1
Weight Loss Nadir (%) (H1975 tumours): −8.5 ± 0.6%
Drug related deaths (A431 tumours): 0
TGD (Tumour Growth Delay) (A431 tumours): >250%
Weight Loss Nadir (%) (A431 tumours): −6.3 ± 4.5%
A431 HCR (Hypoxic Cytotoxicity Ratio) (A431 cells; fold change in intra-experimental IC50, 4 hours anoxia relative to oxic only): 1.0
IC50 (A431 cells; [3]): 10 nM
IC50 (A431 cells; [4]): 9 nM
H1975 HCR (Hypoxic Cytotoxicity Ratio) (H1975 cells): 0.9
IC50 (H1975 cells; [5]): 500 nM
IC50 (H1975 cells; [6]): 290 nM
SKOV3 HCR (Hypoxic Cytotoxicity Ratio) (SKOV3 cells): 0.9
IC50 (SKOV3 cells; [7]): 450 nM
IC50 (SKOV3 cells; [8]): 300 nM
